Data from patent US20250179061A1 (SIRONAX LTD., priority 2022, published 2025).
pIC50: −log10 of the molar value.

What follows are molecules tested on HT-29 cells (assay: HT-29 necroptosis cell viability assay (TNF-α/SMAC mimetic/zVAD-FMK, CellTiter-Glo)). Details: Homo sapiens, HT-29, HT-29 necroptosis cell viability assay; class symbols for IC50; read-out: Activity.
Assay type: cell-based
Summary of the method: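 HT-29 cells (~5,000/well, overnight) in FBS-free McCoy's 5A with TNF-α 10 ng/ml, SMAC mimetic 6 μM and zVAD-FMK 10 μM plus 10-point 1:3 compound titration, 20 h at 37°C. ATP measured by CellTiter-Glo luminescence; IC50 as geometric mean of duplicates.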

With Cc1nc(C(=O)NC2COC2)sc1Oc1ccc(-n2ncn(Cc3ccccc3F)c2=O)cc1F [Example 603, 5-(2-fluoro-4-(4-(2-fluorobenzyl)-5-oxo-4,5-dihydro-1H-1,2,4-triazol-1-yl)phenoxy)-4-methyl-N-(oxetan-3-yl)thiazole-2-carboxamide] as the molecule, how does the pIC50 read?
Its pIC50 is over 7.00.

How did the pIC50 turn out when Cc1nc(C(=O)NCC2COC2)sc1Oc1ccc(-n2ncn(Cc3ccccc3F)c2=O)cc1F [Example 604, 5-(2-fluoro-4-(4-(2-fluorobenzyl)-5-oxo-4,5-dihydro-1H-1,2,4-triazol-1-yl)phenoxy)-4-methyl-N-(oxetan-3-ylmethyl)thiazole-2-carboxamide] was run?
Its pIC50 is over 7.00.

With Cc1nc(C(=O)N2CC3(COC3)C2)sc1Oc1ccc(-n2ncn(Cc3ccccc3F)c2=O)cc1F [Example 605, 2-(3-fluoro-4-((4-methyl-2-(2-oxa-6-azaspiro[3.3]heptane-6-carbonyl)thiazol-5-yl)oxy)phenyl)-4-(2-fluorobenzyl)-2,4-dihydro-3H-1,2,4-triazol-3-one] as the molecule, how does the pIC50 read?
The pIC50 was over 7.00.

Cc1nc(C(N)=O)sc1Oc1ccc(-n2ncn(Cc3ncccc3F)c2=O)cc1F [Example 606, 5-(2-fluoro-4-(4-((3-fluoropyridin-2-yl)methyl)-5-oxo-4,5-dihydro-1H-1,2,4-triazol-1-yl)phenoxy)-4-methylthiazole-2-carboxamide] was tested. Which pIC50 did it give?
Its pIC50 is over 7.00.

Cc1nc(C(=O)NCC2COC2)sc1Oc1ccc(-n2ncn(Cc3ncccc3F)c2=O)cc1F [Example 607, 5-(2-fluoro-4-(4-((3-fluoropyridin-2-yl)methyl)-5-oxo-4,5-dihydro-1H-1,2,4-triazol-1-yl)phenoxy)-4-methyl-N-(oxetan-3-ylmethyl)thiazole-2-carboxamide] was tested. Which pIC50 did it give?
Its pIC50 is over 7.00.

Cc1nc(C(=O)N2CC(C)(O)C2)sc1Oc1ccc(-n2ncn(Cc3ncccc3F)c2=O)cc1F [Example 608, 2-(3-fluoro-4-((2-(3-hydroxy-3-methylazetidine-1-carbonyl)-4-methylthiazol-5-yl)oxy)phenyl)-4-((3-fluoropyridin-2-yl)methyl)-2,4-dihydro-3H-1,2,4-triazol-3-one] was tested. Which pIC50 did it give?
The pIC50 was over 7.00.

CNC(=O)c1nc(C)c(Oc2ccc(-n3ncn(Cc4c(F)cccc4F)c3=O)cc2F)s1 [Example 609, 5-(4-(4-(2,6-difluorobenzyl)-5-oxo-4,5-dihydro-1H-1,2,4-triazol-1-yl)-2-fluorophenoxy)-N,4-dimethylthiazole-2-carboxamide] was tested. Which pIC50 did it give?
Its pIC50 is over 7.00.

CCNC(=O)c1nc(C)c(Oc2ccc(-n3ncn(Cc4c(F)cccc4F)c3=O)cc2F)s1 [Example 610, 5-(4-(4-(2,6-difluorobenzyl)-5-oxo-4,5-dihydro-1H-1,2,4-triazol-1-yl)-2-fluorophenoxy)-N-ethyl-4-methylthiazole-2-carboxamide] was tested. Which pIC50 did it give?
The pIC50 was over 7.00.

With Cc1nc(C(=O)N(C)C)sc1Oc1ccc(-n2ncn(Cc3c(F)cccc3F)c2=O)cc1F [Example 611, 5-(4-(4-(2,6-difluorobenzyl)-5-oxo-4,5-dihydro-1H-1,2,4-triazol-1-yl)-2-fluorophenoxy)-N,N,4-trimethylthiazole-2-carboxamide] as the molecule, how does the pIC50 read?
Its pIC50 is over 7.00.

With Cc1nc(NC(=O)OC(C)(C)C)sc1Sc1ccc(-n2ncn(Cc3ccccc3)c2=O)cc1 [Example 612, tert-butyl (5-((4-(4-benzyl-5-oxo-4,5-dihydro-1H-1,2,4-triazol-1-yl)phenyl)thio)-4-methylthiazol-2-yl)carbamate] as the molecule, how does the pIC50 read?
Its pIC50 is over 7.00.

How did the pIC50 turn out when Cc1nc(C2(N)CC2)sc1Oc1ccc(-n2ncn(Cc3c(F)cccc3F)c2=O)cc1F [Example 613, 2-(4-((2-(1-aminocyclopropyl)-4-methylthiazol-5-yl)oxy)-3-fluorophenyl)-4-(2,6-difluorobenzyl)-2,4-dihydro-3H-1,2,4-triazol-3-one] was run?
The pIC50 was over 7.00.

Cc1nc(C2(N)COC2)sc1Oc1ccc(-n2ncn(Cc3c(F)cccc3F)c2=O)cc1F [Example 614, 2-(4-((2-(3-aminooxetan-3-yl)-4-methylthiazol-5-yl)oxy)-3-fluorophenyl)-4-(2,6-difluorobenzyl)-2,4-dihydro-3H-1,2,4-triazol-3-one] was tested. Which pIC50 did it give?
Its pIC50 is over 7.00.

N#Cc1cc(S(=O)(=O)c2ccc(-n3ncn(Cc4ccccc4)c3=O)cc2)ccn1 [Example 615, 4-((4-(4-benzyl-5-oxo-4,5-dihydro-1H-1,2,4-triazol-1-yl)phenyl)sulfonyl)picolinonitrile] was tested. Which pIC50 did it give?
Its pIC50 is over 7.00.

With COc1cc(S(=O)(=O)c2ccc(-n3ncn(Cc4ccccc4)c3=O)cc2)ccn1 [Example 616, 4-benzyl-2-(4-((2-methoxypyridin-4-yl)sulfonyl)phenyl)-2,4-dihydro-3H-1,2,4-triazol-3-one] as the molecule, how does the pIC50 read?
The pIC50 was over 7.00.

How did the pIC50 turn out when COc1cc(S(=O)(=O)c2ccc(-n3nc4n(c3=O)C(c3ccccc3)CC4)cc2)ccn1 (stereo not drawn) [Example 617, 2-(4-((2-methoxypyridin-4-yl)sulfonyl)phenyl)-5-phenyl-2,5,6,7-tetrahydro-3H-pyrrolo[2,1-c][1,2,4]triazol-3-one] was run?
Its pIC50 is over 7.00.

How did the pIC50 turn out when COc1cc(S(=O)(=O)c2ccc(-n3ncn(Cc4c(F)cccc4F)c3=O)cc2)ccn1 [Example 618, 4-(2,6-difluorobenzyl)-2-(4-((2-methoxypyridin-4-yl)sulfonyl)phenyl)-2,4-dihydro-3H-1,2,4-triazol-3-one] was run?
Its pIC50 is over 7.00.

Cc1nn(-c2ccc(S(=O)(=O)N3CCN(C4CCCC4)CC3)cc2)c(=O)n1Cc1ccccc1 [Example 619, 4-benzyl-2-(4-((4-cyclopentylpiperazin-1-yl)sulfonyl)phenyl)-5-methyl-2,4-dihydro-3H-1,2,4-triazol-3-one] was tested. Which pIC50 did it give?
Its pIC50 is under 5.00.

Cc1nn(-c2ccc(S(=O)(=O)N3CCN(C4CCCCC4)CC3)cc2)c(=O)n1Cc1ccccc1 [Example 620, 4-benzyl-2-(4-((4-cyclohexylpiperazin-1-yl)sulfonyl)phenyl)-5-methyl-2,4-dihydro-3H-1,2,4-triazol-3-one] was tested. Which pIC50 did it give?
The pIC50 was 5.00 to 6.00.

With Cc1nn(-c2ccc(S(=O)(=O)N3CCN(C4CCOCC4)CC3)cc2)c(=O)n1Cc1ccccc1 [Example 621, 4-benzyl-5-methyl-2-(4-((4-(tetrahydro-2H-pyran-4-yl)piperazin-1-yl)sulfonyl)phenyl)-2,4-dihydro-3H-1,2,4-triazol-3-one] as the molecule, how does the pIC50 read?
Its pIC50 is under 5.00.

With Cc1nn(-c2ccc(S(=O)(=O)N3CCN(CC4CCOCC4)CC3)cc2)c(=O)n1Cc1ccccc1 [Example 622, 4-benzyl-5-methyl-2-(4-((4-((tetrahydro-2H-pyran-4-yl)methyl)piperazin-1-yl)sulfonyl)phenyl)-2,4-dihydro-3H-1,2,4-triazol-3-one] as the molecule, how does the pIC50 read?
Its pIC50 is 6.00 to 7.00.

How did the pIC50 turn out when Cc1nn(-c2ccc(S(=O)(=O)N3CCN(C4COC4)CC3)cc2)c(=O)n1Cc1ccccc1 [Example 623] was run?
Its pIC50 is under 5.00.

How did the pIC50 turn out when Cc1nn(-c2ccc(S(=O)(=O)N3CCN(CC4CCC4)CC3)cc2)c(=O)n1Cc1ccccc1 [Example 624] was run?
Its pIC50 is 5.00 to 6.00.

With Cc1nn(-c2ccc(S(=O)(=O)N3CCN(CC4CCOC4)CC3)cc2)c(=O)n1Cc1ccccc1 (stereo not drawn) [Example 625, 4-benzyl-5-methyl-2-(4-((4-((tetrahydrofuran-3-yl)methyl)piperazin-1-yl)sulfonyl)phenyl)-2,4-dihydro-3H-1,2,4-triazol-3-one] as the molecule, how does the pIC50 read?
Its pIC50 is 6.00 to 7.00.

With Cc1nn(-c2ccc(S(=O)(=O)N3CCN(C4CCCOC4)CC3)cc2)c(=O)n1Cc1ccccc1 (stereo not drawn) [Example 626, 4-benzyl-5-methyl-2-(4-((4-(tetrahydro-2H-pyran-3-yl)piperazin-1-yl)sulfonyl)phenyl)-2,4-dihydro-3H-1,2,4-triazol-3-one] as the molecule, how does the pIC50 read?
The pIC50 was 5.00 to 6.00.
